13 compounds from ChEMBL document CHEMBL1201862, “PubChem BioAssay data set” (2004) can be followed below.

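Cultured in 96-well plates, cells were exposed to test compound for 48 hours across five concentrations. GI50 is the concentration that inhibits growth by half.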 Activity calls are given as the source filed them. No stated cut-off is given here; in the data, active = GI50 up to about 1.1 µM and inactive = higher. Bounds are passed on as bounds.

Among the test systems are SN12C; CCRF-CEM; HT-29; 786-0; NCI-H460; SF-295; MOLT-4; NCI-H226; KM12; SF-539; SK-MEL-5; BT-549; HL-60; SNB-75; HOP-92; HCC 2998; MDA-MB-231; MDA-N.
Assay in all cases: DTP human tumour cell line panel, 48 h

Turning to `CC(C)(C)c1cc(C2COC(=O)COCCOCC(=O)OCCOCCO2)cc(C(C)(C)C)c1O` (configuration not stated), the GI50 (usually the concentration that inhibits growth by half) in the assay on SN12C is 21.8 µM (inactive); with CCRF-CEM, > 100 µM (inactive); in the assay with HT-29, 37.2 µM (inactive); with 786-0, 10 µM (inactive); in the assay with NCI-H460 it was 49.4 µM (inactive); in the assay with SF-295, 24 µM (inactive). For the same compound, the GI50 with MOLT-4 is > 100 µM (inactive); with NCI-H226, > 100 µM (inactive); in the assay with KM12, > 100 µM (inactive); in the assay with SF-539, > 82.8 µM (inactive); with SK-MEL-5 it was > 100 µM (inactive); in the assay on BT-549 it was > 51.1 µM (inactive). Also, the GI50 in the assay on HL-60 was 39.2 µM (inactive); with SNB-75, 20.9 µM (inactive); in the assay with HOP-92 it was 24.7 µM (inactive); in the assay on HCC 2998, 23 µM (inactive); in the assay with MDA-MB-231, 46.6 µM (inactive).

Turning to `CN(CCCNC(=O)c1cn(C)c2c1ccc1ccccc12)CCCNC(=O)c1cn(C)c2c1ccc1ccccc12`, the GI50 is 1.41 µM (inactive) in the assay with SN12C; 2.26 µM (inactive) with CCRF-CEM; 1.55 µM (inactive) in the assay on HT-29; 1.87 µM (inactive) in the assay with 786-0; 1.51 µM (inactive) in the assay on NCI-H460; 4.6 µM (inactive) in the assay on SF-295. Further, the GI50 in the assay with MDA-N is 1.45 µM (inactive); in the assay with NCI-H226, 1.66 µM (inactive); in the assay with KM12, 1.61 µM (inactive); in the assay on SK-MEL-5 it was 1.65 µM (inactive); in the assay on HOP-92, 1.42 µM (inactive); in the assay with HCC 2998, 1.41 µM (inactive).

With `ClCCN1CCOC1=C1C=CC=C1`, the GI50 with SN12C was > 100 µM (inactive); in the assay on CCRF-CEM, 80.4 µM (inactive); in the assay with HT-29 it was > 100 µM (inactive); with 786-0, > 100 µM (inactive); in the assay with NCI-H460 it was > 100 µM (inactive); in the assay on SF-295 it was > 100 µM (inactive). For the same compound, the GI50 in the assay on MOLT-4 is 55.8 µM (inactive); in the assay on NCI-H226, > 100 µM (inactive); in the assay with KM12, 18.4 µM (inactive); in the assay on SF-539, > 100 µM (inactive); in the assay with SK-MEL-5, > 100 µM (inactive); with BT-549 it was > 100 µM (inactive). Besides, the GI50 in the assay with HL-60 is 96.6 µM (inactive); in the assay with SNB-75, > 100 µM (inactive); in the assay on HOP-92, > 100 µM (inactive); in the assay on MDA-MB-231 it was > 100 µM (inactive).

Consider `Cc1ccc([S+]([O-])c2cccs2)cc1` (configuration not stated), for which the GI50 in the assay with SN12C, in the assay on CCRF-CEM, in the assay with HT-29, with 786-0, in the assay on NCI-H460 and with SF-295 was > 100 µM (inactive) throughout. The GI50 in the assay on MOLT-4, in the assay on MDA-N, in the assay on NCI-H226, with KM12, in the assay with SF-539 and with BT-549 was > 100 µM (inactive) throughout. The GI50 with HL-60 and in the assay with HOP-92 was > 100 µM (inactive) in each case.

Regarding `CCN(CC)CCCNc1nc(=O)[nH]c(C)c1C(=O)Nc1c2ccccc2nc2ccccc12`, the GI50 in the assay on SN12C was 15.4 µM (inactive); in the assay on CCRF-CEM it was 5.68 µM (inactive); in the assay with HT-29, 7.41 µM (inactive); in the assay with 786-0, 11.3 µM (inactive); with SF-295, 5.97 µM (inactive); in the assay with MOLT-4 it was 4.28 µM (inactive). Moreover, the GI50 was 4.86 µM (inactive) in the assay with MDA-N; 14.9 µM (inactive) in the assay with NCI-H226; 3.56 µM (inactive) in the assay on KM12; 11.9 µM (inactive) in the assay on SF-539; 10.8 µM (inactive) in the assay with SK-MEL-5; 5.01 µM (inactive) in the assay with HL-60. For the same compound, the GI50 in the assay with SNB-75 is 10.1 µM (inactive); in the assay on HOP-92, 2.63 µM (inactive); in the assay with HCC 2998, 8.79 µM (inactive); with MDA-MB-231, 12.9 µM (inactive).

Turning to `CCOC(CN(C)C(=S)Nc1cccc2ccccc12)OCC`, the GI50 in the assay on SN12C, in the assay with CCRF-CEM, in the assay with HT-29, in the assay with 786-0, in the assay with NCI-H460 and in the assay on SF-295 was > 10 µM (inactive) each time. In addition, the GI50 with MOLT-4, with MDA-N, in the assay with NCI-H226, in the assay on KM12, in the assay with SF-539 and in the assay on SK-MEL-5 was > 10 µM (inactive) each time. Moreover, the GI50 in the assay with HL-60 was > 10 µM (inactive); with SNB-75 it was > 10 µM (inactive); in the assay with HOP-92, 5.51 µM (inactive); in the assay with HCC 2998, > 10 µM (inactive); with MDA-MB-231, > 10 µM (inactive).

On to `O=C1CN(c2cccc(C(F)(F)F)c2)C(=O)CN1CCN1CC(=O)N(c2cccc(C(F)(F)F)c2)CC1=O`, for which the GI50 in the assay with SN12C, in the assay with CCRF-CEM, in the assay with HT-29, in the assay on 786-0, in the assay on NCI-H460 and with SF-295 was > 100 µM (inactive) in each case. The GI50 with MOLT-4, with MDA-N, in the assay with KM12, with SF-539, with SK-MEL-5 and with HL-60 was > 100 µM (inactive) each time. In addition, the GI50 in the assay with SNB-75, in the assay on HCC 2998 and in the assay on MDA-MB-231 was > 100 µM (inactive) in each case.

As for `O=c1[nH]ncc2[nH]c3c4ccccc4ccc3c12`, the GI50 in the assay with CCRF-CEM was 46.3 µM (inactive); with HT-29 it was 39 µM (inactive); in the assay on 786-0 it was 61.7 µM (inactive); with NCI-H460, 32.1 µM (inactive); with SF-295, 22.6 µM (inactive); in the assay with MOLT-4, 35.6 µM (inactive). Besides, the GI50 was 26.4 µM (inactive) in the assay with MDA-N; 37.4 µM (inactive) in the assay on KM12; 50.1 µM (inactive) in the assay on SF-539; 28.1 µM (inactive) in the assay on SK-MEL-5; 93.8 µM (inactive) in the assay with BT-549; 80.7 µM (inactive) in the assay with HL-60. The results for the GI50 in the assay with HOP-92 and in the assay with HCC 2998 were 14 µM (inactive) and 60.1 µM (inactive), respectively.

Regarding `O=C(Nc1cnc(O)nc1O)C(Cl)Cl`, the GI50 in the assay with SN12C, in the assay on CCRF-CEM, in the assay with HT-29, in the assay with 786-0, with SF-295 and with MOLT-4 was > 100 µM (inactive) in each case. Further, the GI50 in the assay on MDA-N, in the assay on NCI-H226, in the assay with KM12, in the assay on SF-539, with SK-MEL-5 and with HL-60 was > 100 µM (inactive) in each case. Moreover, the GI50 with SNB-75, in the assay with HOP-92, in the assay with HCC 2998 and in the assay with MDA-MB-231 was > 100 µM (inactive) each time.

`COC(=O)c1nc(Cl)nc(Cl)c1Cl`: the GI50 with SN12C is 20.9 µM (inactive); with CCRF-CEM it was 6.49 µM (inactive); in the assay on HT-29 it was 22.5 µM (inactive); in the assay on 786-0, 17.3 µM (inactive); in the assay with NCI-H460, 32.2 µM (inactive); with SF-295, 42.3 µM (inactive). In addition, the GI50 was 10.5 µM (inactive) in the assay on MOLT-4; 29.5 µM (inactive) in the assay on MDA-N; 27 µM (inactive) in the assay with NCI-H226; 22.2 µM (inactive) in the assay on KM12; 24.5 µM (inactive) with SF-539; 18.3 µM (inactive) in the assay with SK-MEL-5. Also, the GI50 in the assay with SNB-75 is 87.7 µM (inactive); in the assay with HOP-92 it was 19.4 µM (inactive); in the assay with HCC 2998 it was 22 µM (inactive); in the assay with MDA-MB-231, 17.6 µM (inactive).

Take `O=C(c1ccccc1)N1C(=S)NC(=N/c2ccccc2)/C1=N\c1ccccc1`: the GI50 in the assay with SN12C, with CCRF-CEM, with HT-29, in the assay with 786-0, with NCI-H460 and with SF-295 was > 100 µM (inactive) in each case. Besides, the GI50 in the assay on MOLT-4, in the assay on MDA-N, in the assay on NCI-H226, in the assay with KM12, in the assay with SF-539 and in the assay on SK-MEL-5 was > 100 µM (inactive) each time. In addition, the GI50 with HL-60, in the assay on SNB-75, in the assay with HCC 2998 and in the assay with MDA-MB-231 was > 100 µM (inactive) throughout.

`COC1=CC(=O)c2c(cc(COP(N)(=O)N(CCBr)CCBr)n2C)C1=O` (configuration not stated): the GI50 is < 0.01 µM (active) with SN12C; < 0.01 µM (active) with CCRF-CEM; 0.012 µM (active) in the assay with HT-29; < 0.01 µM (active) in the assay with 786-0; < 0.01 µM (active) with NCI-H460; < 0.01 µM (active) with SF-295. Besides, the GI50 in the assay on MOLT-4 is < 0.01 µM (active); in the assay on MDA-N it was 0.242 µM (active); with NCI-H226, < 0.01 µM (active); in the assay with KM12, 1 µM (active); in the assay on SF-539, < 0.01 µM (active); in the assay with SK-MEL-5, 0.418 µM (active). The results for the GI50 with HL-60, in the assay with SNB-75 and in the assay on MDA-MB-231 were 0.0113 µM (active), < 0.01 µM (active) and 2.1 µM (inactive), respectively.

For the compound `O=C(c1cccs1)N1CCCN(C(=O)c2cccs2)C1=S`, the GI50 in the assay with SN12C, with CCRF-CEM, in the assay with HT-29, in the assay on 786-0, with SF-295 and in the assay on MOLT-4 was > 100 µM (inactive) in each case. The GI50 in the assay with NCI-H226, in the assay on KM12, with SF-539, with SK-MEL-5, with BT-549 and in the assay on HL-60 was > 100 µM (inactive) each time. The GI50 with MDA-MB-231 was > 100 µM (inactive).
